Experimental data taken from ChEMBL document CHEMBL2203248, “Identification of novel series of pyrazole and indole-urea based DFG-out PYK2 inhibitors” (Bioorg Med Chem Lett, 2012).

How the values were obtained:
[1] = Clearance in human liver microsomes at 1 uM after 40 mins by HPLC-MS analysis; assay type: ADME, Microsome; settings: read-out: CLH
[2] = Lipophilicity, log D of the compound at pH 7.4; assay type: physicochemical; settings: buffer
[3] = system: Rattus norvegicus; test: fCmax in Wistar Han rat at 100 mg/kg, po; assay type: ADME, organism-based; design: dose 100 mg/kg, route oral; settings: in vivo
[4] = Cmax in Wistar Han rat at 100 mg/kg, po; assay type: ADME, organism-based; design: dose 100 mg/kg, route oral; settings: in vivo
[5] = Terminal elimination half life in Wistar Han rat at 100 mg/kg, po; assay type: ADME, organism-based; design: dose 100 mg/kg, route oral; settings: in vivo, read-out: beta t1/2 (converted)
[6] = Oral bioavailability in Wistar Han rat at 30 mg/kg; assay type: ADME, organism-based; settings: in vivo
[7] = system: Rattus norvegicus; test: fCmax in Wistar Han rat at 30 mg/kg, po; assay type: ADME, organism-based; design: dose 30 mg/kg, route oral; settings: in vivo
[8] = Cmax in Wistar Han rat at 30 mg/kg, po; assay type: ADME, organism-based; design: dose 30 mg/kg, route oral; settings: in vivo
[9] = Volume of distribution at steady state in Wistar Han rat at 1 mg/kg, iv; assay type: ADME, organism-based; design: dose 1 mg/kg, route intravenous; settings: in vivo, read-out: Vdss
[10] = Plasma clearance in Wistar Han rat at 1 mg/kg, iv; assay type: ADME, organism-based; design: dose 1 mg/kg, route intravenous
[11] = Terminal elimination half life in Wistar Han rat at 1 mg/kg, iv; assay type: ADME, organism-based; design: dose 1 mg/kg, route intravenous; settings: in vivo, read-out: beta t1/2 (converted)

| SMILES | CLint scaled at 1 µM [1] | logD [2] | other results |
| --- | --- | --- | --- |
| Cc1ccc(-n2nc(C(C)(C)C)cc2NC(=O)Nc2cccc3cc(C(=O)NC(C)C)[nH]c23)cc1 | 93 mL/min/kg | 5.3 | – |
| Cc1ccc(-n2nc(C(C)(C)C)cc2NC(=O)Nc2cc(-c3ccc4nccnc4c3)[nH]n2)cc1 | 149 mL/min/kg | 4.7 | fCmax [3]: 1.1 nM; Cmax [4]: 0.068 µM; half-life [5]: 7.3 h |
| CCOCCCNC(=O)c1cc2cccc(NC(=O)Nc3cc(C(C)(C)C)nn3-c3ccc(C)cc3)c2[nH]1 | 31 mL/min/kg | – | bioavailability [6]: 1.6%; fCmax [7]: 42 nM; Cmax [8]: 0.621 µM; Vd [9]: 0.7 L/kg; clearance [10]: 4.8 mL/min/kg; half-life [11]: 4.1 h |
| Cc1ccc(-n2nc(C(C)(C)C)cc2NC(=O)Nc2cccc3cc(C(=O)N4CCC5(CCNC5)C4)[nH]c23)cc1 (stereo not given) | 53 mL/min/kg | – | – |
| CNC(=O)c1cc2cccc(NC(=O)Nc3cc(C(C)(C)C)nn3-c3ccc(C)cc3)c2[nH]1 | 28 mL/min/kg | 4.9 | – |
| Cc1ccc(-n2nc(C(C)(C)C)cc2NC(=O)Nc2cc(-c3ccc4c(c3)OCCO4)[nH]n2)cc1 | 92 mL/min/kg | – | – |
| Cc1ccc(-n2nc(C(C)(C)C)cc2NC(=O)Nc2cccc3cc(C(=O)N(C)CCc4ccccn4)[nH]c23)cc1 | 53 mL/min/kg | – | bioavailability [6]: 69%; fCmax [7]: 25 nM; Cmax [8]: 38.3 µM; Vd [9]: 0.4 L/kg; clearance [10]: 3.2 mL/min/kg; half-life [11]: 2.2 h |
| COc1ccc(-c2cc(NC(=O)Nc3cc(C(C)(C)C)nn3-c3ccc(C)cc3)n[nH]2)cn1 | 48 mL/min/kg | 4.9 | – |
| Cc1ccc(-n2nc(C(C)(C)C)cc2NC(=O)Nc2cc(-c3ccc4ncccc4c3)n[nH]2)cc1 | 55 mL/min/kg | 5.2 | bioavailability [6]: 47%; fCmax [7]: 184 nM; Cmax [8]: 61.3 µM; Vd [9]: 0.15 L/kg; clearance [10]: 2 mL/min/kg; half-life [11]: 2 h |
| Cc1ccc(-n2nc(C(C)(C)C)cc2NC(=O)Nc2cc(-c3ccc(O)nn3)[nH]n2)cc1 | 16 mL/min/kg | – | – |
| Cc1ccc(-n2nc(C(C)(C)C)cc2NC(=O)Nc2cc(COc3cccnc3)n[nH]2)cc1 | 109 mL/min/kg | – | – |
| COc1ccc(-c2cc(NC(=O)Nc3cc(C(C)(C)C)nn3-c3ccc(C)cc3)n[nH]2)c(C)c1 | 129 mL/min/kg | – | – |
| Cc1ccc(-n2nc(C(C)(C)C)cc2NC(=O)Nc2cc(-c3ccc(=O)[nH]c3)n[nH]2)cc1 | 11.9 mL/min/kg | 3.7 | – |
| Cc1ccc(-n2nc(C(C)(C)C)cc2NC(=O)Nc2cc(-c3ccc4nccn4c3)[nH]n2)cc1 | 44 mL/min/kg | 4.5 | – |
| Cc1ccc(-n2nc(C(C)(C)C)cc2NC(=O)Nc2cccc3cc(C(=O)N4CCCC4)[nH]c23)cc1 | 77 mL/min/kg | – | – |
| Cc1ccc(-n2nc(C(C)(C)C)cc2NC(=O)Nc2cc(-c3ccc(=O)n(C)c3)n[nH]2)cc1 | 20 mL/min/kg | 3.8 | – |
